Measurements reported in patent publication US8778888B2, “Cystine knot peptides binding to alpha IIb beta 3 integrins and methods of use” (The Board of Trustees of the Leland Stanford Junior …, priority 2009, dated 2014).
Read-outs that look alike come from different tables or passages of the source. Bridge positions count the residues as written; N and C are the ends. Square brackets hold non-standard residues; d marks the D form. Peptide text beside a SMILES is read from it. hArg = N=C(N)NCCCC[C@H](N)C(=O)O; Mpa = O=C(O)CCS

What was measured:
αvβ3 integrin = target: T1, αvβ3 integrin (Homo sapiens, UniProt P05106+P06756); experiment: Yeast-displayed AgTx constructs binding to αvβ3 integrin; conditions: 10 nM αvβ3, the lowest concentration tested
T1 construct: purchased Millipore
Protocol: The yeast library was grown in selective media (SD-CAA, 20 g/L glucose, 6.7 g/L yeast nitrogen base without amino acids, 5.4 g/L Nα2HPO4, 8.6 g/L NaH2PO4.H2O, and 5 g/L Bacto casamino acids) and induced in selective media containing galactose (SG-CAA). For library screening, 5 to 25×10^6 yeast (depending on the sort round) were labeled with detergent-solubilized integrin and a 1:250 dilution of chicken anti-c-myc IgY (Invitrogen) in integrin binding buffer (IBB, 20 mM Tris pH 7.5 with 1 mM MgCl2, 1 mM MnCl2, 2 mM CaCl2, 100 mM NaCl, and 1 mg/mL bovine serum albumin) at room temperature for 2 h. The yeast cells were centrifuged at 4° C. and the supernatant was removed by aspiration. The yeast were then resuspended in ice-cold BPBS (PBS containing 1 mg/mL bovine serum albumen) containing a 1:100 dilution of phycoerythrin-conjugated goat anti-chicken IgY secondary antibody (Santa Cruz Biotechnology) and a 1:25 dilution of either fluorescein-conjugated anti-αvβ3 antibody (Biolegend) or fluorescein-conjugated anti-αIIb antibody (Biolegend), as appropriate. After incubation for 20 min on ice, the yeast were centrifuged, aspirated, and stored as pellets on ice until cell sorting. Yeast library screening was performed using a Becton Dickinson FACS Vantage SE instrument (Stanford FACS Core Facility) and CellQuest software. […]

[1] = cited from earlier work; for bleeding in patients: clinical use
human platelets = conditions: for IC50: read-out: aggregation (IC50; nM) human platelets, platelets activated with 25 μM ADP, A365 end point over 1 h; for inhibition of platelet aggregation (in words): ADP-activated human platelets, comparison with eptifibatide
Protocol: Human platelets isolated by pheresis were obtained from the Stanford Blood Center and stored in serum with 7% acid/citrate/dextrose (ACD) solution. Prior to use, the platelets were centrifuged, aspirated, washed once with Tyrode's buffer (140 mM NaCl, 3 mM KCl, 12 mM NaHCO3, 0.4 mM NaH2PO4, 2 mM MgCl2, 0.1% glucose, pH 7.4), and counted using a haemacytometer. Counted platelets were resuspended in fresh plasma to a final concentration of approximately 2.8×10^8 cells/mL. 180 μL of the platelet solution, or approximately 5×10^7 platelets, were added to separate wells in a 96-well microtiter plate. AgRP peptide or eptifibatide (Cell Sciences) were added to the wells at varying concentrations, after which the platelets were activated with 25 μM ADP. Absorbance at 365 nm was monitored over 1 hr using a Synergy 4 microplate reader (BioTek Instrumentation) with readings taken every 35 s, with 3 s of shaking between readings. […] Experiments were performed at least 3 times.
Next, the effects of the engineered AgRP peptides on αIIbβ3-mediated platelet aggregation were studied. Three αIIbβ3-specific peptides (2bA, 2bJ, and 2bO) and two β3-specific peptides (b3A and b3I) were tested again. […] Microtiter plates containing platelets in serum in the presence or absence of AgRP peptides were activated using ADP at a final concentration of 25 μM, and absorbance at 365 nm was monitored over 1 h.

[2] = target: T2, αIIbβ3 integrin (K562-αIIbβ3 cells) (Homo sapiens, UniProt P05106+P08514); experiment: Cell binding assay on K562-αIIbβ3 cells (flow cytometry); conditions: K562-αIIbβ3 versus K562-αvβ3 cells
T2 construct: expressed in transfected cells; host or cells: K562 leukemia cells (from S. Blystone)
Protocol: K562 cells stably expressing αIIbβ3, αvβ3, or αvβ5 were obtained from S. Blystone and maintained in IMDM media (Gibco) containing 10% FBS and 1.0 mg/mL geneticin. For binding assays, 10^5 cells were suspended in IBB, and varying concentrations of AgRP peptides were added. After 3 hour incubation at 4° C., the cells were centrifuged, aspirated, and resuspended in ice-cold BPBS containing a 1:20 dilution of fluorescein-conjugated goat anti-His antibody (Bethyl) for […]. The cells were then centrifuged, aspirated, and stored as pellets on ice until analysis by flow cytometry using a BD FACS Caliber instrument Becton Dickinson. Binding data was analyzed with FlowJo (Treestar, Inc.) and data was fit to sigmoidal plots using Kaleidagraph (Synergy Software) to calculate equilibrium dissociation constants. Experiments were performed at least 3 times and data are presented as average values with standard deviations.
To determine the integrin binding affinities and specificities of the engineered AgRP peptides, direct binding assays were performed using K562 leukemia cells that have been transfected to stably express different integrin receptors See J. Cell Biol. 127(4) (1994). Cells were incubated in the presence of varying concentrations of AgRP peptides at 4° C., to minimize receptor internalization, followed by staining with a fluorescein-conjugated anti-hexahistidine antibody and analysis by flow cytometry. Equilibrium dissociation constants (KD values) were determined by plotting AgRP peptide concentration (log scale) versus normalized mean fluorescence intensity, then fitting the data to a sigmoidal curve.

[3] = test system: ADP-induced platelet aggregation; conditions: clinical use; cited from earlier work
αIIbβ3 integrin = αIIbβ3 integrin (Homo sapiens, UniProt P05106+P08514); conditions: clinical use; cited from earlier work
[4] = test system: αvβ3 integrin and the leukocyte integrin Mac-1; conditions: cited from earlier work

T1 sequence (P06756 31-889 limits assumed): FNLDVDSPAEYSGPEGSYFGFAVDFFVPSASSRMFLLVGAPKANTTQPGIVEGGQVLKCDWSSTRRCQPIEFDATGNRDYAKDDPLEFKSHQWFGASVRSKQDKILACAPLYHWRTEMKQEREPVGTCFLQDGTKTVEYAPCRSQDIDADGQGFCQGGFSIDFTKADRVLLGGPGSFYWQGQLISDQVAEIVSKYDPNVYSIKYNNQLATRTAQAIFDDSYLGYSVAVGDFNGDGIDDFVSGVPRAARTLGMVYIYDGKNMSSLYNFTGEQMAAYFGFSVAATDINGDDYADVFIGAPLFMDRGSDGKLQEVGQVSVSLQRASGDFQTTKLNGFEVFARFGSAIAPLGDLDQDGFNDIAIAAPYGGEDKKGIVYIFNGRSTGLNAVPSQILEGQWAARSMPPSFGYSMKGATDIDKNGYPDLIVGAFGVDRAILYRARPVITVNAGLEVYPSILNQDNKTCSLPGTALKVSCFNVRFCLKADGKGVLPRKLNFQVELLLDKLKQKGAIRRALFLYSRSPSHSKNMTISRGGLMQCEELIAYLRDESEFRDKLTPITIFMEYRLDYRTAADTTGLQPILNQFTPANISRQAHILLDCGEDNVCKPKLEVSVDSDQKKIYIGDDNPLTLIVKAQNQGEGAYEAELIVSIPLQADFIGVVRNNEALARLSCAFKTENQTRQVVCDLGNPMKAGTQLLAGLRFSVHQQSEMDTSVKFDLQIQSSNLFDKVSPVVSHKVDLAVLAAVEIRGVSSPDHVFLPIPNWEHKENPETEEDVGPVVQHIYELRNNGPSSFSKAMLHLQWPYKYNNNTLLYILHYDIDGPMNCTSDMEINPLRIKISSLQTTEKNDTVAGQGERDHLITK
T1 sequence (P06756 891-1048 partner limits assumed): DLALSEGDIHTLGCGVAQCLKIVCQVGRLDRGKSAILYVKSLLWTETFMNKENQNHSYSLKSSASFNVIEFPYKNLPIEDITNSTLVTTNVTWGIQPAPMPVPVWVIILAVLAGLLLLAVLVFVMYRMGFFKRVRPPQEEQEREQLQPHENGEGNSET
T1 sequence (P05106 27-788): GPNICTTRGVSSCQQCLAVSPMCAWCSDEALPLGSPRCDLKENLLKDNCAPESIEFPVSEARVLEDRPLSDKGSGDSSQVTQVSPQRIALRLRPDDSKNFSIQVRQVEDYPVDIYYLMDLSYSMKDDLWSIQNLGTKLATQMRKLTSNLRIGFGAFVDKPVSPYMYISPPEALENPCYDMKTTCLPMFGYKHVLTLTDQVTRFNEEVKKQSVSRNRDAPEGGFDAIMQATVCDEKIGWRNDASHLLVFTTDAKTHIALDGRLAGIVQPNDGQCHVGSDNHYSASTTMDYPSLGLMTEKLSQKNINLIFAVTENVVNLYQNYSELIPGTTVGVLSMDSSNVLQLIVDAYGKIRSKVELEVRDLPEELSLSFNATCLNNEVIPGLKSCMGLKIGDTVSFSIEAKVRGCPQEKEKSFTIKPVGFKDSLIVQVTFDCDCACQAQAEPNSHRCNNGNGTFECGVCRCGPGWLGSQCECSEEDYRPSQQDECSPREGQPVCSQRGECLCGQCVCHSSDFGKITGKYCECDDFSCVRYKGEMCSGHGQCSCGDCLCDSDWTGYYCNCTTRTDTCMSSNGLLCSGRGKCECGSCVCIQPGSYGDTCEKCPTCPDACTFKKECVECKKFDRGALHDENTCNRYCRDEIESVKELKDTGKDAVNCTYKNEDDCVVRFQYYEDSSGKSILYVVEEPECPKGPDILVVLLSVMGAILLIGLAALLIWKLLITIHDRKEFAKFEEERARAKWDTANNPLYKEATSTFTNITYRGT

Compound	binding to αvβ3 integrin on yeast surface (αvβ3 integrin)	bleeding in patients [1]	integrin binding specificity on K562 cell lines [2]	inhibition of platelet aggregation (in words) (human platelets)	other results
GCIAEDYGRCTWGGTPCCRGRPCRCSGRGDNDLVCECT [AgTX-1-7A, AgRP 7A loop 4 grafted into AgTx consensus 1]	Binding was observed at 10 nM αvβ3	–	–	–	–
N=C(N)NCCCC[C@@H]1NC(=O)CCSSC[C@@H](C(N)=O)NC(=O)[C@@H]2CCCN2C(=O)[C@H](Cc2c[nH]c3ccccc23)NC(=O)[C@H](CC(=O)O)NC(=O)CNC1=O [eptifibatide, Mpr-Har-Gly-Asp-Trp-Pro-Cys, reference compound] ([Mpa][hArg]GDWPC-NH2; disulfide 1-7)	–	no increases in bleeding have been reported	–	–	IC50 (human platelets): 94 ± 14 nM; IC50 (human platelets; listed as Eptifibatide): 80 nM
CC(C)C[C@@H]1NC(=O)[C@@H]2CSSC[C@@H]3NC(=O)[C@H]([C@@H](C)O)NC(=O)[C@H](C)NC(=O)[C@H](C)NC(=O)[C@@H]4CCCN4C(=O)[C@H](CC(=O)O)NC(=O)[C@H](CSSC[C@H](NC(=O)CNC(=O)[C@H](CCCNC(=N)N)NC(=O)[C@@H]4CCCN4C(=O)[C@H](CCCCN)NC(=O)[C@H](CC(=O)O)NC(=O)[C@H](CC(=O)O)NC(=O)[C@H](CC(=O)O)NC(=O)[C@H](CC(=O)O)NC(=O)[C@H](CCCCN)NC(=O)[C@H](Cc4ccc(O)cc4)NC(=O)[C@H](CC(=O)O)NC(=O)[C@@H](NC(=O)[C@@H](N)Cc4ccc(O)cc4)C(C)C)C(=O)N[C@@H](C(C)C)C(=O)N[C@@H](CCCNC(=N)N)C(=O)N[C@@H](CC(C)C)C(=O)N[C@@H](Cc4c[nH]cn4)C(=O)N[C@@H](CCC(=O)O)C(=O)N[C@@H](CO)C(=O)N2)NC(=O)[C@H](CSSC[C@@H](C(=O)N[C@@H](CCCNC(=N)N)C(=O)N[C@H](C(=O)N[C@@H](CCCNC(=N)N)C(=O)N[C@@H](Cc2c[nH]cn2)C(=O)N[C@@H](Cc2c[nH]cn2)C(=O)N[C@@H](Cc2c[nH]cn2)C(=O)N[C@@H](Cc2c[nH]cn2)C(=O)N[C@@H](Cc2c[nH]cn2)C(=O)N[C@@H](Cc2c[nH]cn2)C(=O)O)[C@@H](C)O)NC(=O)[C@H](Cc2ccc(O)cc2)NC(=O)[C@@H]2CSSC[C@H](NC(=O)[C@H](Cc4ccc(O)cc4)NC3=O)C(=O)N[C@@H](C(C)C)C(=O)NCC(=O)N[C@@H](CCCNC(=N)N)C(=O)NCC(=O)N[C@@H](CC(=O)O)C(=O)N[C@@H](C(C)C)C(=O)N[C@@H](CCCNC(=N)N)C(=O)N[C@@H](CCCNC(=N)N)C(=O)N[C@@H](CCCCN)C(=O)N2)NC(=O)[C@@H]2CCCN2C(=O)[C@H](C(C)C)NC(=O)[C@H](CCC(N)=O)NC(=O)[C@H](CCC(N)=O)NC(=O)CNC1=O [b3A]	–	–	bound both K562-αIIbβ3 and K562-αvβ3 cells	slightly more effective	–
Abciximab: αIIbβ3 integrin-specific antibody fragment c7E3	–	bleeding issues in many patients	–	–	persistence of the antibody in the patient ([1]; in spite of a 12-hour infusion): over two-thirds of the antibody persists in the patient for several weeks; inhibition of ADP-induced platelet aggregation [3]: > 80%; blockage of αIIbβ3 integrin (αIIbβ3 integrin): > 90%; binding to other integrins [4]: also binds to αvβ3 integrin and the leukocyte integrin Mac-1
GCIAEDYGRCTWGGTPCCRGRGCICSGRGDNDLVCECT [AgTx2-7A, AgRP 7A loop 4 grafted into AgTx consensus 2]	Binding was observed at 10 nM αvβ3	–	–	–	–
CC(C)C[C@@H]1NC(=O)[C@@H]2CSSC[C@@H]3NC(=O)[C@H]([C@@H](C)O)NC(=O)[C@H](C)NC(=O)[C@H](C)NC(=O)[C@@H]4CCCN4C(=O)[C@H](CC(=O)O)NC(=O)[C@H](CSSC[C@H](NC(=O)CNC(=O)[C@H](CCCNC(=N)N)NC(=O)[C@@H]4CCCN4C(=O)[C@H](CCCCN)NC(=O)[C@H](CC(=O)O)NC(=O)[C@H](CC(=O)O)NC(=O)[C@H](CC(=O)O)NC(=O)[C@H](CC(=O)O)NC(=O)[C@H](CCCCN)NC(=O)[C@H](Cc4ccc(O)cc4)NC(=O)[C@H](CC(=O)O)NC(=O)[C@@H](NC(=O)[C@@H](N)Cc4ccc(O)cc4)C(C)C)C(=O)N[C@@H](C(C)C)C(=O)N[C@@H](CCCNC(=N)N)C(=O)N[C@@H](CC(C)C)C(=O)N[C@@H](Cc4c[nH]cn4)C(=O)N[C@@H](CCC(=O)O)C(=O)N[C@@H](CO)C(=O)N2)NC(=O)[C@H](CSSC[C@@H](C(=O)N[C@@H](CCCNC(=N)N)C(=O)N[C@H](C(=O)N[C@@H](CCCNC(=N)N)C(=O)N[C@@H](Cc2c[nH]cn2)C(=O)N[C@@H](Cc2c[nH]cn2)C(=O)N[C@@H](Cc2c[nH]cn2)C(=O)N[C@@H](Cc2c[nH]cn2)C(=O)N[C@@H](Cc2c[nH]cn2)C(=O)N[C@@H](Cc2c[nH]cn2)C(=O)O)[C@@H](C)O)NC(=O)[C@H](Cc2ccc(O)cc2)NC(=O)[C@@H]2CSSC[C@H](NC(=O)[C@H](Cc4ccc(O)cc4)NC3=O)C(=O)N[C@@H](CCCNC(=N)N)C(=O)NCC(=O)N[C@@H](CCCNC(=N)N)C(=O)NCC(=O)N[C@@H](CC(=O)O)C(=O)N[C@@H](C(C)C)C(=O)N[C@@H](CCCCN)C(=O)N[C@@H](CC(C)C)C(=O)N[C@@H](CCCNC(=N)N)C(=O)N2)NC(=O)[C@@H]2CCCN2C(=O)[C@H](C(C)C)NC(=O)[C@H](CCC(N)=O)NC(=O)[C@H](CCC(N)=O)NC(=O)CNC1=O [b3I]	–	–	bound both K562-αIIbβ3 and K562-αvβ3 cells	slightly more effective	–
